Drawing on patent US11739098B2 (BRISTOL-MYERS SQUIBB COMPANY, priority 2017, dated 2023), this text covers IC50 for 14 compounds.

As a reminder, the IC50 is the concentration that gives 50% inhibition. Higher therefore signals lower potency.

A value given as a limit tells only on which side of the number the result lay.

Format in all cases: cell-based
Assay [1] deals with T1, human TLR8 (Homo sapiens, UniProt Q9NR97).
T1 construct: host or cells: HEK-Blue cells (HEK293-derived reporter line)
T1 sequence (Q9NR97 27-1041): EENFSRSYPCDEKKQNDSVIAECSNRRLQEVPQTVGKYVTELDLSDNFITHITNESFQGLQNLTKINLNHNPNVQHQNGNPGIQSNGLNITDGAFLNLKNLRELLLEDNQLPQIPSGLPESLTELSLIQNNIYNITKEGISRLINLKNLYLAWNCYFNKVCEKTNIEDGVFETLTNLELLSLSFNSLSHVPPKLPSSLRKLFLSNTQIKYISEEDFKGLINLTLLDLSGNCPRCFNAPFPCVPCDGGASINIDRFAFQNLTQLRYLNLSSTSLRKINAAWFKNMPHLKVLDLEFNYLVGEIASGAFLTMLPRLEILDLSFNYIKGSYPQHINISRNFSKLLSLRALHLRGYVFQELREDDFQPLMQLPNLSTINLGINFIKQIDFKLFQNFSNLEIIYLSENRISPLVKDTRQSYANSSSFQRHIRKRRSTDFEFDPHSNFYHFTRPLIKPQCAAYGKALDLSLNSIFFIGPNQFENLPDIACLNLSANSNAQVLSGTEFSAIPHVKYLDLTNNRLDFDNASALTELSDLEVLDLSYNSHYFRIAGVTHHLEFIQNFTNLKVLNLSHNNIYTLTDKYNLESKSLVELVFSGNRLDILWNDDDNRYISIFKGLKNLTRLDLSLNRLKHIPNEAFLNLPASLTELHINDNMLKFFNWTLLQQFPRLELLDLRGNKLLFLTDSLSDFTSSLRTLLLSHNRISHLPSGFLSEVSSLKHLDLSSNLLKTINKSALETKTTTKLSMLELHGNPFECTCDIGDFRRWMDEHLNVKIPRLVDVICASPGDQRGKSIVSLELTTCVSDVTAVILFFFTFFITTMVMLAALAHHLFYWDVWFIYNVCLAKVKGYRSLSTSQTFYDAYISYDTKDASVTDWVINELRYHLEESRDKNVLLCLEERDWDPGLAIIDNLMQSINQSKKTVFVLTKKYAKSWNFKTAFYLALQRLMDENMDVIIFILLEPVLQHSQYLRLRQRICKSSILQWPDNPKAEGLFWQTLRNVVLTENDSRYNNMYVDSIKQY
The assay can be described thus: TLR8 inhibition reporter assay (HEK-Blue cells, SEAP reporter, R848 stimulation). Conditions: HEK-Blue cells overexpressing human TLR8, SEAP reporter, R848 15.9 μM. In a few lines: (§1)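 After 22 h at 37 °C, SEAP secretion was measured from human TLR7-, TLR8- or TLR9-expressing HEK-Blue reporter cells given compound (0.05 nM–50 μM) 30 min before agonist: 7.5 μM gardiquimod, 15.9 μM R848 or 5 nM ODN2006 respectively. Percent inhibition referenced to agonist-plus-DMSO and known-inhibitor wells.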
(In general: In a reporter assay the amount or activity of a reporter protein is the signal.)

Assay [2] addresses T2, human TLR7 (Homo sapiens, UniProt Q9NYK1).
T2 construct: host or cells: HEK-Blue cells (HEK293-derived reporter line)
T2 sequence (Q9NYK1 27-1049): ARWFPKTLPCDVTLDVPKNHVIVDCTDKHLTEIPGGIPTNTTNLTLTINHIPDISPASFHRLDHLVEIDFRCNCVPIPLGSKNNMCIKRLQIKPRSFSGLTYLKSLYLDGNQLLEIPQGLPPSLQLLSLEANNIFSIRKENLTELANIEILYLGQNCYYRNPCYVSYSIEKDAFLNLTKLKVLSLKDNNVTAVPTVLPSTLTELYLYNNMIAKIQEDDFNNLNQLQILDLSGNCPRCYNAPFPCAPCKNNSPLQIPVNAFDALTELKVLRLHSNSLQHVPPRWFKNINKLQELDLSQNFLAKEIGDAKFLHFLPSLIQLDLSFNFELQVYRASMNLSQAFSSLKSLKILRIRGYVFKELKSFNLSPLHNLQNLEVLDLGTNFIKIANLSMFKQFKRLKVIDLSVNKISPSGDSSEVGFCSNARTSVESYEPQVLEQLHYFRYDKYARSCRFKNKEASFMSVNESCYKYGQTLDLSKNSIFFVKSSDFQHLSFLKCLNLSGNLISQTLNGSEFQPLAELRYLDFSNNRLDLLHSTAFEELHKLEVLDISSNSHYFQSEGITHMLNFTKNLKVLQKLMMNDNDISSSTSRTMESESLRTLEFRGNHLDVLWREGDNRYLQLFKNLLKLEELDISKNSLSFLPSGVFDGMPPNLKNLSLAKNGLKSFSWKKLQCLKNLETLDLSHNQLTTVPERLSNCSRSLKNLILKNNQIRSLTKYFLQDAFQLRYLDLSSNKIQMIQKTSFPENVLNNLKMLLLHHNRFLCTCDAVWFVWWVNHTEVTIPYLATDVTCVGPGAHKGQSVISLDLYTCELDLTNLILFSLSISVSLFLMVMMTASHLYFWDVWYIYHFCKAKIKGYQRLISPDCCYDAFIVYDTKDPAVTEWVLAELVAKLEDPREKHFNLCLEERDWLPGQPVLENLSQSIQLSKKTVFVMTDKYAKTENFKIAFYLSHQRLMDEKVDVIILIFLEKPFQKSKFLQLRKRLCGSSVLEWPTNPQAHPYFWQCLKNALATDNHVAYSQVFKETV
The assay can be described thus: TLR7 inhibition reporter assay (HEK-Blue cells, SEAP reporter, gardiquimod stimulation). The settings on record: HEK-Blue cells overexpressing human TLR7, SEAP reporter, gardiquimod 7.5 μM. The gist of the method: as §1

The target of assay [3] is T3, human TLR9 (Homo sapiens, UniProt Q9NR96).
T3 construct: host or cells: HEK-Blue cells (HEK293-derived reporter line)
T3 sequence (Q9NR96 26-1032): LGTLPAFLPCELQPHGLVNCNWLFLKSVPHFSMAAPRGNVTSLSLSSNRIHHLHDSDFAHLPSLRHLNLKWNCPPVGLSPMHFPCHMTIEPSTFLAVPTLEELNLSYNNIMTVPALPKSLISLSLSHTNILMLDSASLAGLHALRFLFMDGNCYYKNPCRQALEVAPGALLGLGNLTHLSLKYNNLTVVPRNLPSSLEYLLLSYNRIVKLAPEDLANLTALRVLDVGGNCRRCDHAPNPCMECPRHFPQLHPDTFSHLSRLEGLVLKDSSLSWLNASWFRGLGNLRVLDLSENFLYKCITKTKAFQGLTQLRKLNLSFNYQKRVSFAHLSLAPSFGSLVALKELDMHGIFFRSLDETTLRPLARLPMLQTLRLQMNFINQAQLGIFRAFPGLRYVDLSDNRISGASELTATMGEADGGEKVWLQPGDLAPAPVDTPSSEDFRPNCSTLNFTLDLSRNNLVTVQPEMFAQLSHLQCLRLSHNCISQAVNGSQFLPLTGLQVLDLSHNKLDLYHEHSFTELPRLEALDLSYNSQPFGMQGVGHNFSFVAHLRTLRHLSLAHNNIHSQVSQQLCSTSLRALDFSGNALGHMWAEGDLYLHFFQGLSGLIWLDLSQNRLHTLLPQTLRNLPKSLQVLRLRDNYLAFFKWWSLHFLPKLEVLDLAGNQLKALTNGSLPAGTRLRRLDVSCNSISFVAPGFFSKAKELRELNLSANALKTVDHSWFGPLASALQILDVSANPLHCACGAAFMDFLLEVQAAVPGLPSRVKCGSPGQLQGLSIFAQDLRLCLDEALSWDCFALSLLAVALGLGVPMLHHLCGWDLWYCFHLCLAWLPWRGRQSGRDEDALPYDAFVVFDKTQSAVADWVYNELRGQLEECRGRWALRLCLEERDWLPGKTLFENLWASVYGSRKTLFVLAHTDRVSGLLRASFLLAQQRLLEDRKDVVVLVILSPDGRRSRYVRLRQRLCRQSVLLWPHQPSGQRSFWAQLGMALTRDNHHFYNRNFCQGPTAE
The assay can be described thus: TLR9 inhibition reporter assay (HEK-Blue cells, SEAP reporter, ODN2006 stimulation). Conditions: HEK-Blue cells overexpressing human TLR9, SEAP reporter, ODN2006 5 nM. The gist of the method:
as §1

With `CC(C)c1c(-c2cnc3ccnn3c2)[nH]c2ccc(C3CCN(CC(=O)N(C)C)CC3)cc12` [Example 359, 2-(4-(3-isopropyl-2-(pyrazolo[1,5-a]pyrimidin-6-yl)-1H-indol-5-yl)piperidin-1-yl)-N,N-dimethylacetamide], the results for the 50% inhibitory concentration (IC50) in assay [1], in assay [2] and in assay [3] were above 3130 nM, 1000 to 50000 nM and 1000 to 50000 nM, respectively.
On to `CNC(=O)CN1CCC(c2ccc3[nH]c(-c4cn5nnnc5cc4C)c(C(C)C)c3c2)CC1` [Example 316, 2-(4-(3-isopropyl-2-(7-methyltetrazolo[1,5-a]pyridin-6-yl)-1H-indol-5-yl)piperidin-1-yl)-N-methylacetamide], for which the IC50 in assay [1] is 100 to 1000 nM; in assay [2], below 100 nM; in assay [3], 1000 to 50000 nM.
In the case of `CCc1c(-c2ccn3ncnc3c2)[nH]c2ccc(C3CCNCC3)cc12` [Example 198, 7-(3-ethyl-5-(piperidin-4-yl)-1H-indol-2-yl)-[1,2,4]triazolo[1,5-a]pyridine], the results for the half-maximal inhibitory concentration (IC50) in assay [1], in assay [2] and in assay [3] were 100 to 1000 nM, below 100 nM and 1000 to 50000 nM, respectively.
`Cc1cc(-c2[nH]c3ccc(C4CCN(C(=O)CCN5CCCC5)CC4)cc3c2C(C)C)cn2nnnc12` [Example 618, 1-(4-(3-isopropyl-2-(8-methyltetrazolo[1,5-a]pyridin-6-yl)-1H-indol-5-yl)piperidin-1-yl)-3-(pyrrolidin-1-yl)propan-1-one]: the figures for the concentration for half-maximal inhibition (IC50) in assay [1], in assay [2] and in assay [3] were below 100 nM, below 100 nM and 100 to 1000 nM, respectively.
For the compound `CCc1c(-c2ccnc3[nH]ncc23)[nH]c2ccc(C3CCN(Cc4cncs4)CC3)cc12` [Example 928, 5-((4-(3-ethyl-2-(1H-pyrazolo[3,4-b]pyridin-4-yl)-1H-indol-5-yl)piperidin-1-yl)methyl)thiazole], the results for the IC50 in assay [1], in assay [2] and in assay [3] were below 100 nM, 100 to 1000 nM and 1000 to 50000 nM, respectively.
The matching figures for `Cc1cc2ncnn2nc1-c1[nH]c2ccc(C3CCNCC3)cc2c1C(C)C` [Example 31, 6-(3-isopropyl-5-(piperidin-4-yl)-1H-indol-2-yl)-7-methyl-[1,2,4]triazolo[1,5-b]pyridazine]: below 100 nM, below 100 nM and 1000 to 50000 nM.
Consider `CC(C)c1c(-c2c[nH]c3cccnc23)[nH]c2ccc(C3CCNCC3)cc12` [Example 19, 3-(3-isopropyl-5-(piperidin-4-yl)-1H-indol-2-yl)-1H-pyrrolo[3,2-b]pyridine], for which the 50% inhibitory concentration (IC50) in assay [1] was in the range of 1000 to 50000 nM; in assay [2], 100 to 1000 nM; in assay [3] it was 100 to 1000 nM.
Consider `CCc1c(-c2ccnc3[nH]cc(C)c23)[nH]c2ccc(C3CCNCC3)cc12` [Example 217, 4-(3-ethyl-5-(piperidin-4-yl)-1H-indol-2-yl)-3-methyl-1H-pyrrolo[2,3-b]pyridine], for which the IC50 in assay [1], in assay [2] and in assay [3] was 100 to 1000 nM in each case.
For the compound `CC(C)c1c(-c2ccnc3[nH]ncc23)[nH]c2ccc(C3CCN(Cc4cnc5ccccc5c4)CC3)cc12` [Example 895, 3-((4-(3-isopropyl-2-(1H-pyrazolo[3,4-b]pyridin-4-yl)-1H-indol-5-yl)piperidin-1-yl)methyl)quinoline], the 50% inhibitory concentration (IC50) in assay [1] was below 100 nM; in assay [2] it was 100 to 1000 nM; in assay [3], 1000 to 50000 nM.
Regarding `CCCN1CCC(c2ccc3[nH]c(-c4cc(C)c5c(c4)ncn5C)c(C(C)C)c3c2)CC1` [Example 956, 5-(3-isopropyl-5-(1-propylpiperidin-4-yl)-1H-indol-2-yl)-1,7-dimethyl-1H-benzo[d]imidazole], the 50% inhibitory concentration (IC50) in assay [1] is 100 to 1000 nM; in assay [2], below 100 nM; in assay [3], 100 to 1000 nM.
On to `Cc1cc(-c2[nH]c3ccc(C4CCNCC4)cc3c2C(C)C)c2[nH]ncc2n1` [Example 49, 7-(3-isopropyl-5-(piperidin-4-yl)-1H-indol-2-yl)-5-methyl-1H-pyrazolo[4,3-b]pyridine], for which the half-maximal inhibitory concentration (IC50) was below 100 nM in assay [1], below 100 nM in assay [2] and 1000 to 50000 nM in assay [3].
With `Cc1cc(-c2[nH]c3ccc(C4CCNCC4)cc3c2C(C)C)cn2c(C#N)cnc12` [Example 130, 6-(3-isopropyl-5-(piperidin-4-yl)-1H-indol-2-yl)-8-methylimidazo[1,2-a]pyridine-3-carbonitrile], the values for the half-inhibitory concentration (IC50) in assay [1], in assay [2] and in assay [3] were below 100 nM, 100 to 1000 nM and 1000 to 50000 nM, respectively.
Taken in the same sequence, the figures for `CC(C)c1c(-c2ccnc3[nH]ncc23)[nH]c2ccc(C3CCN(C4CCNCC4)CC3)cc12` [Example 832, 4-(5-([1,4′-bipiperidin]-4-yl)-3-isopropyl-1H-indol-2-yl)-1H-pyrazolo[3,4-b]pyridine] were below 100 nM, below 100 nM and 100 to 1000 nM.
The matching figures for `CCc1c(-c2ccc3ncc(C#N)n3n2)[nH]c2ccc(C3CCNCC3)cc12` [Example 102, 6-(3-ethyl-5-(piperidin-4-yl)-1H-indol-2-yl)imidazo [1,2-b]pyridazine-3-carbonitrile]: 1000 to 50000 nM, 1000 to 50000 nM and 1000 to 50000 nM.
